Data set [1] is classed as in vivo. As for the experimental part:
(§1) The trial was designed to compare tamoxifen (20 mg once daily [od]) and anastrozole (1 mg od) and to compare tamoxifen (20 mg od) and the combination of anastrozole (1 mg od) plus tamoxifen (20 mg od) as adjuvant treatment in terms of: • a) time to recurrence of breast cancer (defined as the earliest of local or distant recurrence, new primary breast cancer, or death); and • b) safety and side effects. Secondary objectives of this trial were to compare (i) tamoxifen and anastrozole and (ii) to compare tamoxifen and the combination of anastrozole plus tamoxifen as adjuvant treatment in terms of: • a) time to distant recurrence; • b) survival; and • c) incidence of new breast primaries.
(§2) Specifically, the trial was designed as a randomised, double-blind, multicentre trial to compare the efficacy and safety of tamoxifen alone, anastrozole alone and anastrozole in combination with tamoxifen as adjuvant treatment for breast cancer in post-menopausal women.
At the major analysis, the incidence rates of the following pre-defined adverse events was formally compared between treatment groups defined by treatment received: hot flushes, nausea and vomiting, asthenia, mood disturbances, musculo-skeletal disorders, vaginal bleeding, vaginal discharge, endometrial cancer, fractures, cataract, venous thromboembolic events, and ischaemic cardiovascular disease. The primary analysis includes all patients who received trial treatment, analysed according to treatment received. A secondary subgroup analysis was also be undertaken, analysed according to trial treatment received, in patients with oestrogen receptor (ER) positive and/or progesterone receptor (PR) positive tumours, patients with ER negative and PR negative tumours, and all other patients remaining safety data was summarised and presented by treatment received.

Data set [2] deals with advanced breast cancer. The following applies: advanced disease, cited from earlier work.
Data set [3] relates to early breast cancer. Put plainly: Randomised, double-blind, multicentre adjuvant trial: time to disease recurrence / disease-free survival and new breast primaries. The data set is classed as in vivo, post-menopausal women. To be noted: for First event / First events: Contralateral (DCIS) / First events: Contralateral (invasive) / First events: Death - breast cancer / First events: Death - other reason / First events: Distant / First events: Locoregional: number of first events, ITT population. How it is done:
as §1, §2
Patients were assessed at entry, 3 months, 6 months and thereafter at 6-month intervals. Patients were recruited from 381 centres and in 21 countries. The patients were recruited between July 1996 and March 2000.
The double blind trial used both active and placebo anastrozole and tamoxifen tables, in order to maintain blindness to trial therapy. Anastrozole 1 mg and matching anastrozole placebo were supplied as white, film-coated tablets. Tamoxifen 20 mg active tablets and matching tamoxifen placebo were supplied as white, round, biconvex tablets. Patients were randomised to receive one of three oral therapy regimens. The daily dose is one tablet of anastrozole (1 mg active or placebo) plus one tablet of tamoxifen (20 mg active or placebo). Patients were instructed to take their daily dose at approximately the same time each day. At entry to the trial patients received either a 13-week supply or a 26-week supply of trial material. Patients who received a 13-week supply received a further 13-week supply at the first follow-up visit (3-months). From the 6-month visit onwards, patients received a 26-week supply. In order to assess compliance, patients were asked to return all unused tablets at each visit.
Therapy was started as soon as possible after randomisation, but not more than 8 weeks after completion of surgery and chemotherapy. […] Primary chemotherapy must have started within 8 weeks of completing primary surgery. Patients who stop primary chemotherapy before completion of the planned number of cycles may also be randomised. […] These drugs include the following:— • cytotoxic chemotherapy; • oral adminstration of ketoconazole (antifungal) or related compounds (i.e. topical applications are acceptable); • other hormonal treatments for breast cancer.
Patients were reviewed for recurrence of breast cancer at all follow-up visits, using the following criteria, which are based on British Breast Group recommendations:—
New breast primaries (either contralateral or ipsilateral) were regarded as disease recurrence events in the statistical analyses of time to recurrence.
The primary statistical endpoint of the trial was time to disease recurrence (locoregional or distant recurrence, new primary breast cancer or death from any cause) and safety/tolerability. The secondary statistical endpoints were time to distant recurrence, time to death, the incidence of new breast primaries and the incidence of pre-defined adverse events. In summary, two treatment comparisons were made: (1) anastrozole alone compared to tamoxifen alone and (2) tamoxifen alone compared to anastrozole and tamoxifen in combination.

For data set [4], the system named is breast cancer. To be noted: adjuvant tamoxifen for two years or more, no concomitant chemotherapy; cited from earlier work.

SMILES strings stand for the structures. Entries after “also recorded” stand apart in the source; their conditions may differ. Where a name gives a salt, the structure may show the parent alone. Read-outs that look alike come from different tables or passages of the source.

In the case of `CC/C(=C(\c1ccccc1)c1ccc(OCCN(C)C)cc1)c1ccccc1` [tamoxifen, tamoxifen citrate], the tolerability versus anastrozole result in data set [1] (musculoskeletal disorders and fractures) is recorded as “better tolerated”. The “patients who will respond” value in data set [2] (ER and PR negative patients) is less than 10%. Moreover, the “patients who will respond” value in data set [2] (ER and PR positive patients) is on record as “approximately 70%”. Also, in data set [3], the First event is given as 379, the “First events: Contralateral (DCIS)” value was 3, the “First events: Contralateral (invasive)” value stood at 30 and the “First events: Death - breast cancer” value is 1. In addition, in data set [3], the “First events: Death - other reason” value was 81, the “First events: Distant” value stood at 181 and the “First events: Locoregional” value is recorded as 83. Besides, in data set [4], the “annual reduction in mortality” value is 24% and the “annual reduction in recurrence” value is 39%.
As for `CC(C)(C#N)c1cc(Cn2cncn2)cc(C(C)(C)C#N)c1` [anastrozole], the “overall tolerability in the adjuvant programme” value in data set [1] (FIG. 4, pre-defined adverse events) is recorded as “well tolerated”. Also, in data set [1] (endometrial cancer, vaginal bleeding, vaginal discharge, ischemic cerebrovascular events, venous thromboembolic events, hot flushes, weight gain), the tolerability versus tamoxifen entry is “significantly better tolerated”. The “rate of disease recurrence, comparison in words” value in data set [3] (FIG. 2, receptor positive population) was “superior to tamoxifen”. For the same compound, the “HR, disease-free survival” value in data set [3] (ITT (overall) population, versus tamoxifen, HR <1.00 favours anastrozole or the combination) is given as 0.83. The “reduction in recurrence rate” value in data set [3] (hormone receptor positive (ER and/or PR positive) patients, versus tamoxifen) came out at 22%. Also, the “reduction in the rate of recurrence events” value in data set [3] (main analysis, all patients, versus tamoxifen, locoregional, distant, contralateral events and deaths) is 17%. Besides, in data set [3], the First event was 317, the “First events: Contralateral (DCIS)” value stood at 5, the “First events: Contralateral (invasive)” value turned out to be 9 and the “First events: Death - breast cancer” value came to 2. In addition, in data set [3], the “First events: Death - other reason” value is reported as 78, the “First events: Distant” value was 156 and the “First events: Locoregional” value came to 67. In addition, in data set [3] (overall population), the “incidence of new primary (contralateral) breast cancer, comparison in words” value is recorded as “significantly more effective than tamoxifen”. Moreover, in data set [3] (overall population, adjuvant treatment of early breast cancer), the “disease-free survival / rate of disease recurrence, comparison in words” value is given as “significantly more effective than tamoxifen; also recorded: superior to tamoxifen”. In addition, the “incidence of new primary (contralateral) breast cancer, comparison in words” value in data set [3] (overall population, listed as anastrazole) is reported as “superiority”. For the same compound, in data set [3] (overall population, versus tamoxifen), the “HR, incidence of new (contralateral) breast primaries” value is 0.42. Further, the “OR, incidence of contralateral breast cancer” value in data set [3] (overall population, versus tamoxifen, 1.00 would show equivalence) is on record as 0.42. In addition, the “HR, disease-free survival” value in data set [3] (receptor positive population, versus tamoxifen) worked out at 0.78.

The record behind these values is US20050165081A1, “Use of anastrozole for the treatment of post-menopausal women having early breast cancer” (priority 2001, published 2005).
